Measured values: paper PMC2364024, “Bioavailability and dose-dependent anti-tumour effects of 9-cis retinoic acid on human neuroblastoma xenografts in rat” (British Journal of Cancer, 2001)
“And” between values parts separate entries of the source, which are not always exact repeats. Equal entries are not always repeated. “Also recorded” adds a separate entry of the source. Where two headings read alike, the source gives them in different places.

Assays:
[1] = test system: human neuroblastoma SH-SY5Y xenografts; set-up: method as in Ponthan et al, 2001; conditions: nude rats, 9-cis RA 5 mg day-1 (once daily); ref Ponthan et al, 2001; cited from earlier work
[2] = Pharmacokinetic study of 9-cis RA in rat (plasma HPLC, one-compartment model)
[3] = test system: human neuroblastoma SH-SY5Y xenografts; experiment: Neuroblastoma SH-SY5Y xenograft tumour growth in nude rats; format: in vivo
Method: This increases the importance of finding new therapeutic drugs. […] Two animals were sacrificed at each time point. […] The true tumour weight was recorded at autopsy. […] All treatments were administered with a gastric feeding tube.

[4] = rat, in vivo; for conversion of 9-cis RA to its metabolite (4-oxo-9-cis RA) / ratio AUC (4-oxo-9-cis RA)/AUC (9 cis RA): male, Sprague-Dawley; for ratio AUC (4-oxo-9-cis RA)/AUC (9 cis RA) / AUC (area under the curve) / Cmax (concentration maximum) / T1/2 (elimination half-life): 9 mg

Structure (SMILES): CC1=C(/C=C/C(C)=C\C=C\C(C)=C\C(=O)O)C(C)(C)CCC1 [9-cis RA, 9-cis retinoic acid]
- effect on tumour growth [1]: significant reduction in tumour growth
- elimination half-life (t1/2) ([2]; 9 mg 9-cis RA, p.o. and i.v. taken together): 26 to 43 min
- AUC (area under the curve) ([2]; intravenous administration, 9 mg 9-cis RA): 80100 ng·h/mL
- Cmax ([2]; male, Sprague-Dawley, plasma, iv, 9 mg): 120000 ng/mL
- half-life ([2]; male, Sprague-Dawley, plasma, iv, 9 mg, T1/2 (elimination half-life), intravenous administration, 9 mg 9-cis RA): 26.4 min
- bioavailability ([2]; male, Sprague-Dawley, plasma, oral, 9 mg): 11%
- half-life ([2]; male, Sprague-Dawley, plasma, other: p.o. and i.v. taken together, 9 mg, elimination half-life (t1/2), 9 mg 9-cis RA, p.o. and i.v. taken together): 35 min
- Cmax ([2]; male, Sprague-Dawley, plasma, po, 9 mg): 3000 ng/mL
- half-life ([2]; male, Sprague-Dawley, plasma, po, 9 mg, T1/2 (elimination half-life), oral administration, 9 mg 9-cis RA): 42.6 min
- AUC (area under the curve) ([2]; oral administration, 9 mg 9-cis RA): 8550 ng·h/mL
- tumour weight, trend ([3]; 2 x 2.5 mg day-1 treated group): tendency towards a reduction in tumour weights
- tumour weight at sacrifice, median (and range) ([3]; 9-cis RA 2 mg day-1 (RA 1), n 10 tumours, 12 days): 2.79 g and 1.49 to 9.98 g
- effect on tumour growth ([3]; 9-cis RA 2 mg day-1 p.o.): no significant effect on tumour growth; also recorded: tumour growth-inhibiting effect was not significant
- tumour volume compared to control tumours ([3]; 9-cis RA 2 mg day-1 p.o., 12 days): no significant reduction in tumour volume
- effect on tumour growth ([3]; 9-cis RA 2.5 mg p.o. twice daily): only limited effect on tumour growth; also recorded: limited but statisti- cally significant reduction in tumour growth
- tumour volume compared to corresponding controls ([3]; 9-cis RA 2.5 mg p.o. twice daily, day 8): not at day 8
- tumour weight at sacrifice, median (and range) ([3]; 9-cis RA 2 x 2.5 mg (RA 2), n 3 tumours, 10 days): 1.84 g and 0.92 to 2.95 g
- tumour weight compared to untreated control tumours ([3]; regardless of treatment schedule (2 mg day-1 or 2.5 mg twice daily), after 10-12 days of therapy): no significant reduction in tumour weight
- conversion of 9-cis RA to its metabolite (4-oxo-9-cis RA) ([4]; iv): about 8%
- ratio AUC (4-oxo-9-cis RA)/AUC (9 cis RA) ([4]; iv): 0.08
- conversion of 9-cis RA to its metabolite (4-oxo-9-cis RA) ([4]; po): 42%
- ratio AUC (4-oxo-9-cis RA)/AUC (9 cis RA) ([4]; po): 0.42

Structure (SMILES): CC1=C(/C=C/C(C)=C\C=C\C(C)=C\C(=O)O)C(C)(C)CCC1=O [4-oxo-9-cis RA, 4-oxo-9-cis retinoic acid]
- formed amount (AUC) of 4-oxo-9-cis RA after i.v. versus p.o. administration [4]: 2 fold
- Tmax (time of Cmax) ([4]; iv): 188 min
- AUC (area under the curve) ([4]; iv): 6295 ng/mL/h
- Cmax (concentration maximum) ([4]; iv): 738 ng/mL
- T1/2 (elimination half-life) ([4]; iv): 129 min
- Tmax (time of Cmax) ([4]; po): 275 min
- AUC (area under the curve) ([4]; po): 3563 ng/mL/h
- Cmax (concentration maximum) ([4]; po): 441 ng/mL
- T1/2 (elimination half-life) ([4]; po): 126 min
